Results: patent EP0472573B1, “HERBICIDE RESISTANT MAIZE” (ZENECA LIMITED, priority 1989, dated 1990)

Target: ALS enzyme extracted from Mutant 6 (heterozygous)
Experiment: ALS enzyme assay, heterozygous Mutant 6
Type: biochemical, Zea mays
Details: ALS of heterozygous Mutant 6; read-out: ID50% (the source's name)
Experimental: (§1) Seeds of generation M₁BC₁ M₁BC₂ of the nine mutants were sprayed pre-emergence with the herbicide imazethapyr (PURSUIT) (Trade Mark) at a rate of 250 g/ha and grown in a growth chamber (16 hour day, 27°C; 8 hour night, 17°C). Plants were harvested after 11 days.
(§2) Four grams of leaf material were harvested from just above the first leaf axis and ground in a mortar and pestle in 20ml of a solution containing 40mM Tricine (Trade Mark), 10mM EDTA, 5mM pyruvate, 80 »M flavin adenine dinucleotide (FAD), 1mM dithiothreitol (DTT), pH 8, plus 0.8g Polyclar AT. The homogenate was pressed through four layers of muslin and centrifuged at 30,000g for 20 minutes.
(§3) The supernatant was brought to 65% saturation with ammonium sulphate, left to precipitate for 30 minutes and then centrifuged at 30.000g for 20 minutes. The pellet was resuspended in 2.5ml of 40mM Tricine, 10mM EDTA, 5mM pyruvate, 80»M FAD, 25% (v/v) glycerol, 1mM DTT, pH 8, and desalted into 3.5ml of 40mM Tricine, 10mM EDTA, 25% (v/v) glycerol, 1mM DTT, pH 8.
(§4) One hundred microlitres of the enzyme extract was used for each assay. Final reagent concentrations were: 120mM Tricine, 50mM pyruvate, 10mM MgCl₂, […], 93»M thiamine pyrophosphate (TPP), pH 8, in the presence or absence of a herbicide of interest, in a volume of 750 »l. Incubations were carried out at 37°C for 30 minutes. Reactions were stopped with 250»l of 1.84M sulphuric acid, and decarboxylation of the acetolactate carried out at 37°C for 75 minutes, or at 60°C for 30 minutes. Assay blanks had sulphuric acid added prior to the enzyme extract. To the samples and blanks 650»l of α-naphthol in 2.73M NaOH/0.16%(w/v) creatine were added followed by incubation at 37°C for 30 minutes. After centrifugation at 30,000g the optical density of the supernatant was read at 540nm.
(§5) The assay procedure described was carried out on ALS enzyme extracted from each of the nine mutants for the following herbicides: imazethapyr (PURSUIT) imazapyr (ARSENAL) imazaquin (SCEPTER) chlorsulfuron (GLEAN) chlorimuron (CLASSIC) […] (HARMONY) The enzyme activity graphs are given as Figures 3 to 8. In addition, homozygous lines of mutants 1 and 2 which were selected from generation M₁BC₁S₂, were also tested against the same group of herbicides and against representatives of the triazolopyrimidines and phenoxypyrimidines. The chemical structures of these herbicides are shown in Figure 2 of the accompanying drawings.
(§6) From the enzyme assay data it is possible to derive, as a measure of the degree of inhibition the factor ID50% for each mutant and for each herbicide. This factor is indicative of the herbicide concentration which gives 50% inhibition of the ALS activity in comparison with the wild-type control. It is also possible to derive the fold increase in resistance.

Row | SMILES | IC50 [µM]
1 | CC(C)C1(C)N=C(c2nc3ccccc3cc2C(=O)O)NC1=O (stereo not shown) [Imazaquin, imazaquin] | 1.5
2 | CCc1cnc(C2=NC(=O)C(C)(C(C)C)N2)c(C(=O)O)c1 (stereo not shown) [Imazethapyr, 5-ethyl-2-(5-iso-propyl-5-methyl-4-oxo-2-imidazolin-2-yl) nicotinic acid] | 60

Same assay, conditions: Mutant 6; groups Strong, Intermediate, Weak, Zero

Row | SMILES | resistance group, Enzyme Assay
3 | CC(C)C1(C)N=C(c2nc3ccccc3cc2C(=O)O)NC1=O (stereo not shown) [Imazaquin, imazaquin] | Weak
4 | CCc1cnc(C2=NC(=O)C(C)(C(C)C)N2)c(C(=O)O)c1 (stereo not shown) [Imazethapyr, 5-ethyl-2-(5-iso-propyl-5-methyl-4-oxo-2-imidazolin-2-yl) nicotinic acid] | Weak

Same assay, conditions: fold increase in resistance vs wild type, heterozygous Mutant 6; 30 min

Row | SMILES | Fold Increase
5 | CC(C)C1(C)N=C(c2nc3ccccc3cc2C(=O)O)NC1=O (stereo not shown) [Imazaquin, imazaquin] | 2
6 | CCc1cnc(C2=NC(=O)C(C)(C(C)C)N2)c(C(=O)O)c1 (stereo not shown) [Imazethapyr, 5-ethyl-2-(5-iso-propyl-5-methyl-4-oxo-2-imidazolin-2-yl) nicotinic acid] | 40

Target: ALS enzyme extracted from Mutant 3 (heterozygous)
Experiment: ALS enzyme assay, heterozygous Mutant 3
Type: biochemical, Zea mays
Details: ALS of heterozygous Mutant 3; read-out: ID50% (the source's name)
Experimental: as §1, §2, §3, §4, §5, §6

Row | SMILES | IC50 [nM]
7 | CC(C)C1(C)N=C(c2nc3ccccc3cc2C(=O)O)NC1=O (stereo not shown) [Imazaquin, imazaquin] | 1500
8 | CCc1cnc(C2=NC(=O)C(C)(C(C)C)N2)c(C(=O)O)c1 (stereo not shown) [Imazethapyr, 5-ethyl-2-(5-iso-propyl-5-methyl-4-oxo-2-imidazolin-2-yl) nicotinic acid] | 2500

Same assay, conditions: Mutant 3; groups Strong, Intermediate, Weak, Zero

Row | SMILES | resistance group, Enzyme Assay
9 | CC(C)C1(C)N=C(c2nc3ccccc3cc2C(=O)O)NC1=O (stereo not shown) [Imazaquin, imazaquin] | Weak
10 | CCc1cnc(C2=NC(=O)C(C)(C(C)C)N2)c(C(=O)O)c1 (stereo not shown) [Imazethapyr, 5-ethyl-2-(5-iso-propyl-5-methyl-4-oxo-2-imidazolin-2-yl) nicotinic acid] | Weak

Same assay, conditions: fold increase in resistance vs wild type, heterozygous Mutant 3; 30 min

Row | SMILES | Fold Increase
11 | CC(C)C1(C)N=C(c2nc3ccccc3cc2C(=O)O)NC1=O (stereo not shown) [Imazaquin, imazaquin] | 2
12 | CCc1cnc(C2=NC(=O)C(C)(C(C)C)N2)c(C(=O)O)c1 (stereo not shown) [Imazethapyr, 5-ethyl-2-(5-iso-propyl-5-methyl-4-oxo-2-imidazolin-2-yl) nicotinic acid] | 2

Target: ALS enzyme extracted from Mutant 9 (heterozygous)
Experiment: ALS enzyme assay, heterozygous Mutant 9
Type: biochemical, Zea mays
Details: ALS of heterozygous Mutant 9; read-out: ID50% (the source's name)
Experimental: as §1, §2, §3, §4, §5, §6

Row | SMILES | IC50 [µM]
13 | CC(C)C1(C)N=C(c2nc3ccccc3cc2C(=O)O)NC1=O (stereo not shown) [Imazaquin, imazaquin] | 50
14 | CCc1cnc(C2=NC(=O)C(C)(C(C)C)N2)c(C(=O)O)c1 (stereo not shown) [Imazethapyr, 5-ethyl-2-(5-iso-propyl-5-methyl-4-oxo-2-imidazolin-2-yl) nicotinic acid] | 425

Same assay, conditions: Mutant 9; groups Strong, Intermediate, Weak, Zero

Row | SMILES | resistance group, Enzyme Assay
15 | CC(C)C1(C)N=C(c2nc3ccccc3cc2C(=O)O)NC1=O (stereo not shown) [Imazaquin, imazaquin] | Strong
16 | CCc1cnc(C2=NC(=O)C(C)(C(C)C)N2)c(C(=O)O)c1 (stereo not shown) [Imazethapyr, 5-ethyl-2-(5-iso-propyl-5-methyl-4-oxo-2-imidazolin-2-yl) nicotinic acid] | Strong

Same assay, conditions: fold increase in resistance vs wild type, heterozygous Mutant 9; 30 min

Row | SMILES | Fold Increase
17 | CC(C)C1(C)N=C(c2nc3ccccc3cc2C(=O)O)NC1=O (stereo not shown) [Imazaquin, imazaquin] | 83
18 | CCc1cnc(C2=NC(=O)C(C)(C(C)C)N2)c(C(=O)O)c1 (stereo not shown) [Imazethapyr, 5-ethyl-2-(5-iso-propyl-5-methyl-4-oxo-2-imidazolin-2-yl) nicotinic acid] | 283

Test system: Mutant 8 plants
Experiment: Cross-resistance testing (glasshouse dose response), Mutant 8
Type: in vivo, Zea mays
Details: pre-emergence spray, assessed after four weeks growth
Excerpt: (§7) The seeds used in this screen were populations of mixed tolerant and sensitive seed, segregating 1:1, derived from each of the heterogygous, tolerant mutants crossed with homozygous, sensitive UE95. All of the tolerant progeny are heterozygous for tolerance. Each of the mutants identified above were used except mutant 4. The controls were seed of self-pollinated UE95 which was pollinated in the same year as the tolerant lines.
(§8) One litre of compost was placed in each seed tray of dimensions 19cm x 11cm x 5cm deep and firmed down flat. Two furrows 1 cm deep were drawn in the surface of the compost in each tray and six seeds were sown in each furrow (total twelve seeds per tray). Some trays were sown with 24 seeds, in which case three furrows were made and 8 seeds sown per furrow.
(§9) In each test each tray contained either the seed of one mutant or of the UE95 control for each herbicide application rate and for the untreated control.
(§10) Five different types of ALS-inhibitor herbicides were tested on the mutants plus imazethapyr (PURSUIT) as a comparison. Four rates of each were applied; approximately 0.1x, 0.5x, 1x and 4x the estimated field rates for each herbicide. The rates are the same for mutant 3 to 10 but higher rates for chlorimuron (CLASSIC) and lower rates for chlorsulfuron (GLEAN) were applied to mutants 1 and 2.
(§11) The rates of application used in the screening tests were as follows: chlorimuron (CLASSIC) 4,20,40,160 g/Ha (mutants 1 and 2); and, 8,40,80,320 g/Ha (mutants 3 to 10); chlorsulfuron (GLEAN) 5,25,50,200 g/Ha (mutants 1 and 2); and, 1,5,10,40 g/Ha (mutants 3 to 10); imazaquin (SCEPTER) 30,150,300,1200 g/Ha; triazolopyrimidine 5,25,50,200 g/Ha; phenoxypyrimidine 10,50,100,400 g/Ha; and, imazethapyr (PURSUIT) 30,150,300,1200 g/Ha The triazolopyrimidine and phenoxypyrimidine were formulated in an adjuvant wetting agent known as JF5969 and diluted with water to make a final concentration of 10% JF5969. The remaining compounds were diluted with water only.
(§12) The spray jet and parameters were as decribed above under "SCREENING". After spraying, the seeds were covered with 0.5 litre of compost and firmed down flat (2.5cm covering) and grown under the conditions described under "SCREENING" above.
(§13) Visual assessments were made of the plants after four weeks growth. Each plant was scored on a scale of zero to 5 and the height measured from soil surface to the tallest leaf tip. The scoring scale was as follows: 0 - 0 to 10% damage (little or no herbicidal effect) 1 - 11 to 25% damage 2 - 26 to 50% damage 3 - 51 to […] 4 - 81 to 95% damage 5 - 96 to 100% damage (complete death of the plant) In carrying out these assessments, plants which were obviously of the sensitive phenotype were ignored (approximately 50% of the plants). […]

Row | SMILES | resistance group, Dose Response
19 | CC(C)C1(C)N=C(c2nc3ccccc3cc2C(=O)O)NC1=O (stereo not shown) [Imazaquin, imazaquin] | Strong
20 | CCc1cnc(C2=NC(=O)C(C)(C(C)C)N2)c(C(=O)O)c1 (stereo not shown) [Imazethapyr, 5-ethyl-2-(5-iso-propyl-5-methyl-4-oxo-2-imidazolin-2-yl) nicotinic acid] | Strong

Test system: Mutant 9 plants
Experiment: Cross-resistance testing (glasshouse dose response), Mutant 9
Type: in vivo, Zea mays
Details: pre-emergence spray, assessed after four weeks growth
Excerpt: as §7, §8, §9, §10, §11, §12, §13

Row | SMILES | resistance group, Dose Response
21 | CC(C)C1(C)N=C(c2nc3ccccc3cc2C(=O)O)NC1=O (stereo not shown) [Imazaquin, imazaquin] | Strong
22 | CCc1cnc(C2=NC(=O)C(C)(C(C)C)N2)c(C(=O)O)c1 (stereo not shown) [Imazethapyr, 5-ethyl-2-(5-iso-propyl-5-methyl-4-oxo-2-imidazolin-2-yl) nicotinic acid] | Strong

Target: ALS enzyme extracted from Mutant 5 (heterozygous)
Experiment: ALS enzyme assay, heterozygous Mutant 5
Type: biochemical, Zea mays
Details: ALS of heterozygous Mutant 5; read-out: ID50% (the source's name)
Experimental: as §1, §2, §3, §4, §5, §6

Row | SMILES | IC50 [µM]
23 | CC(C)C1(C)N=C(c2nc3ccccc3cc2C(=O)O)NC1=O (stereo not shown) [Imazaquin, imazaquin] | 25
24 | CCc1cnc(C2=NC(=O)C(C)(C(C)C)N2)c(C(=O)O)c1 (stereo not shown) [Imazethapyr, 5-ethyl-2-(5-iso-propyl-5-methyl-4-oxo-2-imidazolin-2-yl) nicotinic acid] | 125

Same assay, conditions: Mutant 5; groups Strong, Intermediate, Weak, Zero

Row | SMILES | resistance group, Enzyme Assay
25 | CC(C)C1(C)N=C(c2nc3ccccc3cc2C(=O)O)NC1=O (stereo not shown) [Imazaquin, imazaquin] | Intermediate
26 | CCc1cnc(C2=NC(=O)C(C)(C(C)C)N2)c(C(=O)O)c1 (stereo not shown) [Imazethapyr, 5-ethyl-2-(5-iso-propyl-5-methyl-4-oxo-2-imidazolin-2-yl) nicotinic acid] | Intermediate

Same assay, conditions: fold increase in resistance vs wild type, heterozygous Mutant 5; 30 min

Row | SMILES | Fold Increase
27 | CC(C)C1(C)N=C(c2nc3ccccc3cc2C(=O)O)NC1=O (stereo not shown) [Imazaquin, imazaquin] | 42
28 | CCc1cnc(C2=NC(=O)C(C)(C(C)C)N2)c(C(=O)O)c1 (stereo not shown) [Imazethapyr, 5-ethyl-2-(5-iso-propyl-5-methyl-4-oxo-2-imidazolin-2-yl) nicotinic acid] | 83
